Experimental data reported in patent publication US5602176A, “Phenyl carbamate” (priority 1987, dated 1997).

How the values were obtained:
[1] = tested on: rat hippocampal slices (indirect method for acetylcholinesterase (AChE) inhibition); assay: Electrically evoked 3H-acetylcholine release from rat hippocampal slices; format: cell-based
From the text: Electrically evoked ^3 H-acetylcholine release from rat hippocampal slices
Electrically evoked ^3 H-acetylcholine (^3 H-ACh) release from rat hippocampal slices is a functional in vitro model to investigate presynaptic muscarinic autoreceptor agonists and antagonists. This model can also be used as an indirect method to evaluate drugs which inhibit acetylcholinesterase (AChE). Inhibition of AChE activity leads to the accumulation of endogenous ACh which then interacts with presynaptic muscarinic autoreceptors and inhibits further release of ^3 H-ACh.
Rat hippocampal slices (Wistar strain, 180-200 g) are prepared by chopping into cross sections whole hippocampal slices at a distance of 0.3 mm with a McIlwain tissue chopper. Hippocampal slices obtained from 3 rats are incubated for 30 min. at 23° C. in 6 ml Krebs-Ringer containing 0.1 uCi ^3 H-choline and transferred into the superfusion chamber and superfused with Kreb's medium containing 10 μM hemicholinium-3 at a rate of 1.2 ml/min. at 30° C. Collection of 5 min. fractions of the superfusate begins after 60 min. of superfusion. Two periods of electrical stimulation (2 Hz rectangular pulses 2 msec, 10 mA, 2 min.) are applied after 70 min. (S1) and after 125 min. (S2) of superfusion. […] At the end of the experiments the slices are solubilized in conc. formic acid and tritium content is determined in the superfusate and the solubilized slices. Tritium outflow is expressed as the fractional rate of tritium outflow per min. Electrically evoked tritium outflow is calculated by subtraction of the extrapolated basal tritium outflow from the total tritium outflow during the two min. of electrical stimulation and the following 13 min. and is expressed as percent of the tritium content at the beginning of the sample collection. Drug effects on stimulation evoked tritium outflow are expressed as the ratios S2 /S1. All experiments are run in dublicates using a programmable 12 channel superfusion system. For the calculation a computer program is used.

[2] = tested on: dopamine metabolism in striatum; assay: Influence on dopamine metabolism; format: in vivo, rat; conditions: following administration
Procedure: Influence on dopamine metabolism
Male OFA rats (150-200 g) were used both for acute and subchronic experiments. The animals are maintained under 12 hour periods of light and dark. The animals are sacrificed always between 11.00 and 13.00 h. The brains are excised immediately, dissected on ice according to the method of GLOWINSKI and IVERSEN, J. Neurochem. 13, 655 (1966), frozen on dry ice and the tissue samples stored at -80° C. until analysis.
Dopamine and its metabolites DOPAC (3,4-dihydroxyphenylacetic acid) and HVA (homovanillic acid) are determined in brain tissue extracts which are obtained by homogenisation of the stored brain tissue samples in 0.1N HCl containing 0.05 mM ascorbic acid and subsequent centrifugation. Striatal and cortical tissues are used.
The determination of the metabolites is performed using either the gas chromatography/mass fragmentography (GCMS) technique as described by KAROUM et al., J. Neurochem. 25, 653 (1975) and CATABENI et al., Science 178, 166 (1972) or the fluorometric method as described by […] and MAITRE, Analyt. Biochem. 51, 474 (1973). For the GCMS method, tissue extracts are prepared by adding known amounts of deuterated monoamines and their respective metabolites as internal standards.

[3] = tested on: levels of ACh in different regions of rat brain; assay: Acetylcholine levels in different rat brain regions; format: in vivo; conditions: p.o.
Procedure: Acetylcholine levels in different rat brain regions
The animals are killed by microwave irradiation focused on the head (6 kW operating power 2450 Mhz exposure 1.7 sec., Pueschner Mikrowellen-Energietechnik, Bremen). The brains are removed dissected according to Glowinski and Iversen (1966) and stored at -70° C. until analysis. The brain parts are homogenized in 0.1M perchloric acid containing internal deuterated standards of ACh-d4 and Ch(choline)-d4. After centrifugation, endogenous ACh and Ch together with their deuterated variants are extracted with dipicrylamine (2,2',4,4',6,6'-hexanitrodiphenylamine) in dichlormethane as ion pairs. The Ch moities are derivatized with propionyl chloride and the resulting mixture of ACh and propyl choline derivatives are demethylated with sodiumbenzenethiolate and analyzed by mass-fragmentography according to Jenden et al. Anal. Biochem., 55, 438-448, (1973).

[4] = target: T1, AChE preparations of different rat brain regions (Rattus norvegicus, UniProt P37136); assay: Acetylcholinesterase inhibition in different rat brain regions (in vitro, Ellman); format: biochemical; conditions: table 1
T1 construct: Rat brain tissue is homogenized in cold phosphate buffer pH 7.3; from tissue; host or cells: rat brain (cortex, hippocampus, striatum), supernatant of Triton X-100 homogenate
Procedure: Acetylcholinesterase inhibition in different rat brain regions
AChE preparations of different rat brain regions (Cortex, hippocampus and striatum) are used in this test and the IC50 (inhibitory concentrations in μM) are determined. The enzyme preparations are preincubated with the inhibitor 15 minutes before the determination.
The AChE activity is measured according to the method described by Ellman (Arch. Biochem. Biophys. 82, 70, 1959). Rat brain tissue is homogenized in cold phosphate buffer pH 7.3 (0.25 mM) containing 0.1% of Triton X-100. After centrifugation aliquots of the clear supernatant is used as enzyme source. The enzyme is preincubated with different concentrations of the inhibitor. After different times, substrate (acetylthiocholinjodide 0.5 mM) is added and the remaining activity determined.

[5] = tested on: deoxyglucose (DOG) utilisation in the brain; assay: Muscarinic and nicotinic effects on brain glucose utilisation (deoxyglucose autoradiography); format: in vivo, rat; conditions: 7.5 μmol/kg p.o.
From the text: Muscarinic and nicotinic effects on brain glucose utilisation
Changes in the functional activity of the CNS are associated with altered deoxyglucose (DOG) utilisation in the brain which can be visualised simultaneously in several brain regions using the autoradiographic method of Sokoloff et al., J. Neurochem. 28, 897 (1977). The administration of cholinergic drugs either direct (muscarinic agonists) or indirect (accumulation of acetylcholine) induces in this model a characteristic "fingerprint" pattern by modifying the regional glucose metabolism.
Male Wistar rats (150-200 g) are used. Drugs are administered at various doses and by different routes (i.v., p.o., i.p.) to animals. [14C]-2-deoxyglucose (125 μC/kg) is injected 45 min. before the animals are sacrificed. The brains are immediately excised, frozen at -80° C. and subsequently cut in slices with a thickness of 20 μm. The optical densities of the radiographic images are measured according to a modification of Sokoloff et al.

[6] = In vitro skin diffusion test (penetration through the skin); format: in vitro ADME; conditions: rat skin
From the text: The penetration through the skin of the compounds for administration according to the invention may be observed in standard in vitro or in vivo tests.
One in vitro test is the well known diffusion test which may be effected according to the principles set out in GB 2098865 A and by T. J. Franz in J. Invest. Dermatol. (1975) 64, 194-195. Solutions containing the active agent in unlabelled or radioactively labelled form are applied to one side of isolated pieces of intact human skin or hairless rat skin about 2 cm^2 in area. The other side of the skin is in contact with physiological saline. The amount of active agent in the saline is measured in conventional manner, e.g. by HPLC or spectrophotometric techniques, or by determining the radioactivity.
In this test using rat skin the following penetration rates, for example, have been found: […]

T1 sequence (P37136 32-614): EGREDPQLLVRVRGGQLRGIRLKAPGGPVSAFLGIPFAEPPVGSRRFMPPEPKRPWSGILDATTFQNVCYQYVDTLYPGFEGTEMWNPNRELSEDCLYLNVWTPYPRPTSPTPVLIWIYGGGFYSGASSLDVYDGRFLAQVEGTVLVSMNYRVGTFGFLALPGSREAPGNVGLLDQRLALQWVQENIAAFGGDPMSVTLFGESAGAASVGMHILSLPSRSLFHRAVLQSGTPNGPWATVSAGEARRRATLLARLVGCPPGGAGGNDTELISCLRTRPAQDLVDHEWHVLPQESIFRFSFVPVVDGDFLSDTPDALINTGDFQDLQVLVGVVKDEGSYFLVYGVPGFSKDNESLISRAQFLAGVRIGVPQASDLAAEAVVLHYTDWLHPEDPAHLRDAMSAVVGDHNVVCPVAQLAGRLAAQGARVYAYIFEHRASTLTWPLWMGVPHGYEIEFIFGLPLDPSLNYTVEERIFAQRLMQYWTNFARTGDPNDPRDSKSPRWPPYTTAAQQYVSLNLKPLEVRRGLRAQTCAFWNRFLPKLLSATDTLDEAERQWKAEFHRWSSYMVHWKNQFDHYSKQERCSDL

Row | SMILES | antagonism of the inhibitory effect by atropine [1] | inhibition at 100 µM ([1]; Rattus norvegicus, 3 h, 100 μM, read-out: inhibition of electrically evoked 3H-ACh release from hippocampal slices) [%] | dopamine metabolism in striatum [2] | influence on ACh levels in rat brain, comparison [3] | activity in the evoked 3H-ACh release model [1] | AChE inhibition in vitro, comparison in words [4] | changes in DOG utilisation in various rat brain regions [5] | penetration rate [6] [%]
1 | CCN(C)C(=O)Oc1cccc(C(C)N(C)C)c1 (racemic) [Racemate C, (±)-N-ethyl-3-[(1-dimethylamino)ethyl]-N-methyl-phenyl-carbamate] | can be antagonized by atropine | ~25 | increased | significantly weaker than that induced by compound A |  |  |  | 
2 | CCN(C)C(=O)Oc1cccc([C@@H](C)N(C)C)c1 [Compound B, reference compound] |  |  | increased | significantly weaker than that induced by racemate C | inactive | significantly less active | significant changes in DOG utilisation | 
3 | CCN(C)C(=O)Oc1cccc([C@H](C)N(C)C)c1 [Compound of formula I in free base form, (S)-N-ethyl-3-[(1-dimethylamino)ethyl]-N-methyl-phenyl-carbamate] |  |  |  |  |  |  |  | 28.0±8.2
